Assay results taken from patent US8326545B2, “System and method for displaying a pharmacokinetic and pharmacodynamic drug model” (General Electric Company, priority 2006, dated 2012).

Tests used:
[1] = minimum alveolar concentration; cited from earlier work
[2] = Age MAC Awake (variation on MAC that accounts for age and adjusts to consciousness); type: in vivo, patient
From the text: Interactions are labeled “unknown” when (CeAA>0.3%*AgeMACawake); wherein AGEMACawake is a variation on MAC that accounts for age and adjusts to consciousness.

SMILES | MAC [1] | Age MAC Awake ([2]; age 18) | Age MAC Awake ([2]; donor one) | Age MAC Awake ([2]; donor two)
FC(F)(F)C(Cl)Br (stereo not drawn) [Halothane] | 0.75 | 0.481 | 0.413 | 0.291
FC(F)OC(F)(F)C(F)Cl (stereo not drawn) [Enflurane] | 1.7 | 0.679 | 0.582 | 0.411
FC(F)OC(Cl)C(F)(F)F (stereo not drawn) [Isoflurane] | 1.15 | 0.459 | 0.394 | 0.278
FC(F)OC(F)C(F)(F)F (stereo not drawn) [Desflurane] | 6 | 2.396 | 2.055 | 1.450
FCOC(C(F)(F)F)C(F)(F)F [Sevoflurane] | 2.05 | 0.819 | 0.702 | 0.495
[N-]=[N+]=O [Nitrous Oxide] | 100 | 64.148 | 55.021 | 38.817
